Values of other authors, collected in patent US8921361B2, “Triazine, pyrimidine and pyridine analogs and their use as therapeutic agents and diagnostic probes” (University of Basel, priority 2008, dated 2014).

System: human cancer xenografts

FC(F)c1nc2ccccc2n1-c1nc(N2CCOCC2)nc(N2CCOCC2)n1 [ZSTK474]
toxicity in xenograft mice (mouse, in vivo, po): without evidence of critical toxicity | antitumor activity against human cancer xenografts in mice (orally administered, Yaguchi et al. 2006): potent antitumor activity
